{
  "source": "patent US10434100B2",
  "about": "“Protein phosphatase 2A inhibitors for treating myelodysplastic syndromes” (priority 2014, dated 2019)",
  "key": {"del(5q) MDS [1]": {"test_system": "del(5q) MDS", "details": "cited from earlier work"}, "non-del (5q) MDS": {"test_system": "non-del (5q) MDS", "details": "cited from earlier work"}, "Namalwa cells [2]": {"test_system": "Namalwa cells", "experiment": "Cell cycle analysis of Namalwa cells treated with LB-100", "type": "cell-based", "method": "FIG. 1 is a bar graph showing percent of Namalwa cells in G1 arrest 24 hours after treatment with 0.1 μM, 1.0 μM or 10 μM LB-100 dissolved in DMSO (grey) or MSG (black) compared to control and vehicle.\nFIG. 2 is a bar graph showing percent of Namalwa cells in G1 arrest 24 hours after treatment with 0.1 μM, 1.0 μM or 10 μM LB-100 compared to control.\nNamalwa cells were treated with LB-100 dissolved in DMSO or MSG."}, "Namalwa cells [3]": {"test_system": "Namalwa cells", "experiment": "Apoptosis in cell lines (Namalwa), flow cytometry", "type": "cell-based", "details": "10 μM, dissolved in MSG", "method": "FIG. 3 is a bar graph showing percentage of Namalwa cells undergoing apoptosis after treatment with 0.1 μM, 1.0 μM or 10 μM LB-100 dissolved in DMSO (grey) or MSG (black) compared to control and vehicle.\nFIGS. 4A to 4D are a series of flow cytometry plots showing percentage of Namalwa cells undergoing apoptosis after treatment with control (FIG. 4A), 0.1 μM (FIG. 4B), 1.0 μM (FIG. 4C), or 10 μM (FIG. 4D) LB-100."}, "del(5q) patient BM MNCs": {"test_system": "del(5q) patient BM MNCs", "experiment": "Apoptosis in patient cells, del(5q)", "type": "cell-based", "method": "FIG. 6 is a bar graph showing percentage of primary BM MNCs from a Del(5q) patient undergoing apoptosis after treatment with 0.1 μM, 1.0 μM, or 10 μM lenalidomide (grey) or 0.1 μM, 1.0 μM, or 10 μM LB-100 (black), compared to a control."}, "[4]": {"test_system": "Non-del(5q) patient BM MNCs", "experiment": "Apoptosis in patient cells, non-del(5q)", "type": "cell-based", "details": "FIG. 5"}, "HL60 cells": {"test_system": "HL60 cells", "experiment": "MTT assay, proliferation of HL60 cells", "type": "cell-based", "details": "72 hours, versus lenalidomide, significant difference at 1 μM (FIG. 7A)", "method": "(§1) FIG. 7A is a graph showing proliferation of HL60 cells 72 hours after treatment with 0.001 μM, 0.01 μM, 0.1 μM, 1.0 μM, 10 μM, or 100 μM LB-100 (grey) or 0.001 μM, 0.01 μM, 0.1 μM, 1.0 μM, 10 μM, or 100 μM lenalidomide (black), compared to control or vehicle. FIGS. 7B to 7C are graphs showing proliferation of Namalwa cells 72 hours after treatment with 0.001 μM, 0.01 μM, 0.1 μM, 1.0 μM, 10 μM, or 100 μM LB-100 (♦), 0.001 μM, 0.01 μM, 0.1 μM, 1.0 μM, 10 μM, or 100 μM lenalidomide (▪), or 0.001 μM, 0.01 μM, 0.1 μM, 1.0 μM, 10 μM, or 100 μM, cantharidin (▴), compared to control or vehicle.\n(§2) HL60 cells and U937 cells were compared (FIGS. 8A and 8B)."}, "Namalwa cells [5]": {"test_system": "Namalwa cells", "experiment": "MTT assay, proliferation of Namalwa cells", "type": "cell-based", "details": "72 hours, versus control (FIGS. 7B and 7C)", "method": "as §1, §2"}, "del(5q) MDS [6]": {"test_system": "del(5q) MDS", "experiment": "Additional studies of LB-100 efficacy in del(5q) MDS", "type": "in vivo", "method": "(§3) Additional studies, similar to the aforementioned Phase I design, are conducted to evaluate the efficacy of LB-100, alone or in combination with lenalidomide, in patients with del(5q) MDS or non-del(5q) MDS.\nAn amount of LB-100 is administered to a subject afflicted with del(5q) MDS. […] An amount of LB-100 in combination with lenalidomide is administered to a subject afflicted with del(5q) MDS."}, "non-del(5q) MDS": {"test_system": "non-del(5q) MDS", "experiment": "Additional studies of LB-100 efficacy in non-del(5q) MDS", "type": "in vivo", "method": "as §3\nAn amount of LB-100 is administered to a subject afflicted with non-del(5q) MDS. […] An amount of LB-100 in combination with lenalidomide is administered to a subject afflicted with non-del(5q) MDS."}, "[7]": {"test_system": "MDS that is resistant to lenalidomide", "experiment": "Additional studies of LB-100 efficacy in lenalidomide-resistant MDS", "type": "in vivo", "details": "LB-100 or LB-100 in combination with lenalidomide", "method": "as §3"}, "protein phosphatase 2A": {"target": "protein phosphatase 2A (Homo sapiens, UniProt P67775)", "sequence (P67775 whole entry)": "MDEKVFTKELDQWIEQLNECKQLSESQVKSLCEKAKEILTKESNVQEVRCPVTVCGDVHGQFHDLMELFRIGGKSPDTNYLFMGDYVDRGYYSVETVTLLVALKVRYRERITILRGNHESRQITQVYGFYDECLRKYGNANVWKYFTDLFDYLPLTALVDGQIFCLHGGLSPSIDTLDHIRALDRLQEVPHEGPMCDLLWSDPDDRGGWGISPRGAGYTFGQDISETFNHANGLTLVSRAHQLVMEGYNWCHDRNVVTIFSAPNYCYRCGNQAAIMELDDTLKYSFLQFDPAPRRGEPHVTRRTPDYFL", "details": "cited from earlier work"}, "[8]": {"details": "LB-100 in combination with lenalidomide"}},
  "data": [
    {"smiles": "Nc1cccc2c1CN(C1CCC(=O)NC1=O)C2=O", "note": "(stereo not drawn) [Lenalidomide, lenalidomide]", "values": [
      {"measurement": "transfusion independence (TI), share of patients", "setting": "del(5q) MDS [1]; lower risk MDS patients with del(5q)", "result": 67, "unit": "%"},
      {"measurement": "median duration of response", "setting": "del(5q) MDS [1]; patients with del5q MDS", "result": 2.5, "unit": "years"},
      {"measurement": "transfusion independence (TI), share of patients", "setting": "non-del (5q) MDS", "result": 26, "unit": "%"}
    ]},
    {"smiles": "CN1CCN(C(=O)C2C(C(=O)O)[C@H]3CC[C@@H]2O3)CC1", "note": "(stereo partly drawn) [LB100]", "values": [
      {"measurement": "G1 arrest, dose dependence (in words)", "setting": "Namalwa cells [2]; Table 2, FIG. 2", "result": "led to G1 arrest in a dose-dependent fashion"},
      {"measurement": "G1 arrest (in words)", "setting": "Namalwa cells [2]; dissolved in DMSO or MSG (Table 1, FIG. 1)", "result": "led to G1 arrest at 1 and 10 μM in MSG and at 10 μM in DMSO"},
      {"measurement": "Apoptosis (in words)", "setting": "Namalwa cells [3]", "result": "led to apoptosis at 10 μM"},
      {"measurement": "Apoptosis (in words)", "setting": "del(5q) patient BM MNCs; 1 μM", "result": "mild increase in apoptosis"},
      {"measurement": "Cytotoxicity compared with lenalidomide (in words)", "setting": "del(5q) patient BM MNCs; 10 μM", "result": "more cytotoxic than lenalidomide"},
      {"measurement": "Apoptosis (in words)", "setting": "del(5q) patient BM MNCs; 0.1, 1.0, 10 μM (FIG. 6)", "result": "induced apoptosis in a dose dependent fashion"},
      {"measurement": "Apoptosis (in words)", "setting": "[4]", "result": "did not lead to apoptosis"},
      {"measurement": "Proliferation (in words)", "setting": "HL60 cells", "result": "significant decreased proliferation in comparison to treatment with lenalidomide"},
      {"measurement": "Proliferation (in words)", "setting": "Namalwa cells [5]", "result": "significant decrease in proliferation in comparison to control"},
      {"measurement": "Efficacy (in words)", "setting": "del(5q) MDS [6]; LB-100 alone", "result": "effective to treat the del(5q) MDS"},
      {"measurement": "Efficacy (in words)", "setting": "del(5q) MDS [6]; [8]", "result": "effective to treat the del(5q) MDS"},
      {"measurement": "Efficacy (in words)", "setting": "non-del(5q) MDS; LB-100 alone", "result": "effective to treat the non-del(5q) MDS"},
      {"measurement": "Efficacy (in words)", "setting": "non-del(5q) MDS; [8]", "result": "effective to treat the non-del(5q) MDS"},
      {"measurement": "Efficacy (in words)", "setting": "[7]", "result": "effective to treat the MDS"}
    ]},
    {"smiles": "C=C1[C@@H](O)[C@@H]2O[C@]3(CC[C@H](/C=C/[C@@H](C)[C@@H]4CC(C)=C[C@@]5(O[C@H](C[C@@](C)(O)C(=O)O)CC[C@H]5O)O4)O3)CC[C@H]2O[C@@H]1[C@@H](O)C[C@H](C)[C@H]1O[C@@]2(CCCCO2)CC[C@H]1C", "note": "[Okadaic acid, 9,10-Deepithio-9,10-didehydroacanthifolicin]", "values": [
      {"measurement": "Selectivity over PP2B, PP2C and other phosphatases (in words)", "setting": "protein phosphatase 2A", "result": "highly selective over PP2B, PP2C and a range of other phosphatases"}
    ]}
  ]
}
